{"source": "patent US20090068290A1", "about": "“BIFEPRUNOX DOSES FOR TREATING SCHIZOPHRENIA” (priority 2006, published 2009)", "key": {"[1]": {"tested_on": "adult subjects with schizophrenia", "test": "Calgary Depression Scale for Schizophrenia (CDSS), Clinical Study Three", "assay_type": "in vivo, human", "conditions": "LOCF; for Change from Baseline in CDSS Total Score, Median / Change from Baseline in CDSS Total Score, Mean (SD): 15 mg", "excerpt": "SECONDARY OBJECTIVES To assess the efficacy of bifeprunox in treating schizophrenia using the Positive Symptom sub-scale score of the PANSS, the Negative Symptom sub-scale score of the PANSS, the General Psychopathology sub-scale of the PANSS, Brief Psychiatric Rating Scale (BPRS) total score derived from the PANSS, BPRS psychosis score derived from the PANSS, the Clinical Global Impression Severity of Illness score (CGI-S), the Clinical Global Impression Improvement score (CGI-I), CGI-I responder rate, PANSS responder rate based on the PANSS total score, Calgary Depression Scale for Schizophrenia (CDSS), and Subject Satisfaction rating.\nThere were four treatment arms in this study, approximately 144 subjects per arm. […] After completing the Single-Blind Placebo Lead-in Period of at least three days, bifeprunox-treated subjects were titrated from 0.25 mg up to 20 mg/day or 30 mg/day according to a standardized titration scheme over a seven- or eight-day period, respectively. When the assigned dose was reached, subjects were maintained at that dose for the remainder of the six week treatment period. […] Subjects were hospitalized (if not already inpatients) after eligibility for study entry was verified, starting from the Screening Visit until at least 10 days after Baseline. Subjects could be hospitalized longer than 10 days if considered medically necessary by the Investigator. Rating scale assessments for efficacy and abnormal movement disorders were done weekly except for Week 5. […] Subject satisfaction with study medication was assessed at Week 6."}, "[2]": {"tested_on": "adult subjects with schizophrenia", "test": "PANSS positive symptom subscale score, Clinical Study Two", "assay_type": "in vivo, human", "conditions": "Risperidone 6 mg, LOCF, ITT", "method": "Rating scale assessments were performed weekly, except for week 5, to measure the change from baseline to endpoint of the PANSS total score. Other assessments included: PANSS positive symptom subscale score, PANSS negative symptom subscale score, PANSS general pschopathology subscale score, BPRS total score, BPRS psychosis score, the CGI-S score, the CGI-I score, responder rates based on the PANSS total score, and the Calgary Depression Scale for Schizophrenia (CDSS). […]\n(§1) Subjects who completed this study had the option to continue in the long-term. […] Risperidone-treated subjects were titrated from 2 mg to 6 mg daily over a three-day period and were subsequently maintained at 6 mg/day for the remainder of the treatment period. […] Blood samples were also obtained at Screening/Baseline, Week 3, and Week 6 for clinical laboratory assessments."}, "[3]": {"tested_on": "adult subjects with schizophrenia", "test": "Adverse events (TEAE, SAE, special interest, EPS-related TEAE), Clinical Study Two", "assay_type": "in vivo, human", "conditions": "Risperidone 6 mg", "method": "as §1"}, "[4]": {"test": "Body weight, Clinical Study Two", "assay_type": "in vivo, human", "conditions": "Risperidone 6 mg"}, "[5]": {"test": "Pooled metabolic analysis, 6-week studies: body weight", "conditions": "6-week studies", "source_text": "OBJECTIVE: To examine the metabolic effects of bifeprunox in patients with acute and stable schizophrenia.\nMETHODS: Metabolic data was compiled from one 6-month and four 6-week studies (i.e., a treatment period) of bifeprunox in patients with stable and acute schizophrenia, respectively. In the 6-month study, patients received bifeprunox (n=331) or placebo (PBO) (n=166). […] Metabolic evaluations included body weight, body mass index (BMI), plasma glucose and lipid profiles. Fasting glucose and lipid values were assessed in one 6-week study and in the 6-month study. Triglyceride:HDL ratio (TG:HDL) was calculated as a marker of insulin resistance. No statistical analyses were performed; only descriptive statistics are presented."}}, "data": [{"smiles": "Cc1cc2c(s1)Nc1ccccc1N=C2N1CCN(C)CC1", "note": "[Olanzapine, olanzapine, reference compound]", "values": [{"measurement": "Change from Baseline in CDSS Total Score, Median", "setting": "[1]; Week 1", "value": "−1.0"}, {"measurement": "Change from Baseline in CDSS Total Score, Mean (SD)", "setting": "[1]; Week 2", "value": "−1.33 (3.33)"}, {"measurement": "Change from Baseline in CDSS Total Score, Median", "setting": "[1]; Week 2", "value": "−1.0"}, {"measurement": "Change from Baseline in CDSS Total Score, Mean (SD)", "setting": "[1]; Week 3", "value": "−1.59 (3.43)"}, {"measurement": "Change from Baseline in CDSS Total Score, Median", "setting": "[1]; Week 3", "value": "−1.0"}, {"measurement": "Change from Baseline in CDSS Total Score, Mean (SD)", "setting": "[1]; Week 4", "value": "−1.49 (3.89)"}, {"measurement": "Change from Baseline in CDSS Total Score, Median", "setting": "[1]; Week 4", "value": "−1.0"}, {"measurement": "Change from Baseline in CDSS Total Score, Mean (SD)", "setting": "[1]; Week 6, Endpoint", "value": "−1.47 (3.95)"}, {"measurement": "Change from Baseline in CDSS Total Score, Median", "setting": "[1]; Week 6, Endpoint", "value": "−1.0"}, {"measurement": "mean change (SD) from Baseline to Endpoint in CDSS score", "setting": "[1]; olanzapine 15 mg, ITT", "value": "−1.47 (3.95)"}]}, {"smiles": "Cc1nc2n(c(=O)c1CCN1CCC(c3noc4cc(F)ccc34)CC1)CCCC2", "note": "[Risperidone, risperidone, reference compound]", "values": [{"measurement": "Change from Baseline in PANSS Positive Symptom Subscale Score, Mean (SD)", "setting": "[2]; Week 1", "value": "−3.3 (3.6)"}, {"measurement": "Change from Baseline in PANSS Positive Symptom Subscale Score, Median", "setting": "[2]; Week 1", "value": "−3"}, {"measurement": "Change from Baseline in PANSS Positive Symptom Subscale Score, Mean (SD)", "setting": "[2]; Week 2", "value": "−5.3 (4.7)"}, {"measurement": "Change from Baseline in PANSS Positive Symptom Subscale Score, Median", "setting": "[2]; Week 2", "value": "−5"}, {"measurement": "Change from Baseline in PANSS Positive Symptom Subscale Score, Mean (SD)", "setting": "[2]; Week 3", "value": "−6.3 (5.3)"}, {"measurement": "Change from Baseline in PANSS Positive Symptom Subscale Score, Median", "setting": "[2]; Week 3", "value": "−6"}, {"measurement": "Change from Baseline in PANSS Positive Symptom Subscale Score, Mean (SD)", "setting": "[2]; Week 4", "value": "−7.0 (5.6)"}, {"measurement": "Change from Baseline in PANSS Positive Symptom Subscale Score, Median", "setting": "[2]; Week 4", "value": "−7"}, {"measurement": "Change from Baseline in PANSS Positive Symptom Subscale Score, Mean (SD)", "setting": "[2]; Week 6/Endpoint", "value": "−7.2 (6.6)"}, {"measurement": "Change from Baseline in PANSS Positive Symptom Subscale Score, Median", "setting": "[2]; Week 6/Endpoint", "value": "−7"}, {"measurement": "AKATHISIA, %", "setting": "[3]", "value": "(10%)"}, {"measurement": "BRADYKINESIA, %", "setting": "[3]", "value": "(1%)"}, {"measurement": "DISTURBANCE IN ATTENTION, %", "setting": "[3]", "value": "(1%)"}, {"measurement": "DIZZINESS, %", "setting": "[3]", "value": "(6%)"}, {"measurement": "DYSARTHRIA, %", "setting": "[3]", "value": "(2%)"}, {"measurement": "DYSKINESIA, %", "setting": "[3]", "value": "(<1%)"}, {"measurement": "Dystonia, %", "setting": "[3]", "value": "(7%)"}, {"measurement": "EXTRAPYRAMIDAL DISORDER, %", "setting": "[3]", "value": "(14%)"}, {"measurement": "HEADACHE NOS, %", "setting": "[3]", "value": "(15%)"}, {"measurement": "Hypoaesthesia, %", "setting": "[3]", "value": "1 (<1%)"}, {"measurement": "Memory Impairment, %", "setting": "[3]", "value": "1 (<1%)"}, {"measurement": "NERVOUS SYSTEM DISORDERS, %", "setting": "[3]", "value": "(53%)"}, {"measurement": "Parkinsonism, %", "setting": "[3]", "value": 1, "unit": "%"}, {"measurement": "SEDATION, %", "setting": "[3]", "value": 7, "unit": "%"}, {"measurement": "SINUS HEADACHE, %", "setting": "[3]", "value": "1 (<1%)"}, {"measurement": "SOMNOLENCE, %", "setting": "[3]", "value": 6, "unit": "%"}, {"measurement": "TARDIVE DYSKINESIA, %", "setting": "[3]", "value": 2, "unit": "%"}, {"measurement": "TREMOR, %", "setting": "[3]", "value": 5, "unit": "%"}, {"measurement": "incidence of severe TEAE of schizophrenia", "setting": "[3]", "value": 2, "unit": "%"}, {"measurement": "subjects with at least one TEAE", "setting": "[3]", "value": 78, "unit": "%"}, {"measurement": "Weight, Baseline Mean of subjects with Endpoint change", "setting": "[4]", "value": 174.5, "unit": "lbs"}, {"measurement": "Weight, Baseline Mean of subjects with Week 6 change", "setting": "[4]", "value": 166.6, "unit": "lbs"}, {"measurement": "Weight, Baseline, Max", "setting": "[4]", "value": 404, "unit": "lbs"}, {"measurement": "Weight, Baseline, Mean (SD)", "setting": "[4]", "value": "174.3 (58.5) lbs"}, {"measurement": "Weight, Baseline, Median", "setting": "[4]", "value": 170, "unit": "lbs"}, {"measurement": "Weight, Baseline, Min", "setting": "[4]", "value": 82, "unit": "lbs"}, {"measurement": "Weight, Change from Baseline at Endpoint, Max", "setting": "[4]", "value": 33, "unit": "lbs"}, {"measurement": "Weight, Change from Baseline at Endpoint, Mean (SD)", "setting": "[4]", "value": "3.2 (7.4) lbs"}, {"measurement": "Weight, Change from Baseline at Endpoint, Median", "setting": "[4]", "value": 2, "unit": "lbs"}, {"measurement": "Weight, Change from Baseline at Endpoint, Min", "setting": "[4]", "value": "−20", "unit": "lbs"}, {"measurement": "Weight, Change from Baseline at Week 6, Max", "setting": "[4]", "value": 33, "unit": "lbs"}, {"measurement": "Weight, Change from Baseline at Week 6, Mean (SD)", "setting": "[4]", "value": "4.1 (7.6) lbs"}, {"measurement": "Weight, Change from Baseline at Week 6, Median", "setting": "[4]", "value": 2, "unit": "lbs"}, {"measurement": "Weight, Change from Baseline at Week 6, Min", "setting": "[4]", "value": "−12", "unit": "lbs"}, {"measurement": "mean weight change at Endpoint", "setting": "[4]", "value": 3.2, "unit": "lbs"}, {"measurement": "mean weight increase at endpoint", "setting": "[5]; pooled", "value": 1.7, "unit": "kg"}, {"measurement": "mean weight change", "setting": "[5]; pooled (overall summary)", "value": "+1.7 kg"}]}]}
